Legend:
S1P5 = target: T1, S1P5 (Homo sapiens, UniProt Q9H228); experiment: [35S]GTPγS binding assay, agonist activity at S1P5; assay type: biochemical; conditions: for EC50: n = 3, errors in parentheses derived from 95% confidence intervals, nine concentrations 100 fM to 10 μM; for Efficacy (%): relative efficacy versus S1P against S1P5, single high concentration, single 96-well plate
T1 construct: purchased Eurofins
Protocol: The membrane preparation was diluted to […] with assay buffer and mixed 1 : 1 (v/v) with a 0.4 mg mL^-1 solution of saponin in assay buffer. […] MerckTM Multiscreen® HTS 96 well filter plates were pre-wet with 70% aqueous EtOH (50 μL per well) for 30 seconds and then washed twice with assay buffer (200 μL per well). […]

S1P1 = target: T2, S1P1 (Homo sapiens, UniProt P21453); experiment: [35S]GTPγS binding assay, agonist activity at S1P1; assay type: biochemical; conditions: n = 3, errors in parentheses derived from 95% confidence intervals
T2 construct: purchased Eurofins
Protocol: (§1) A GTPγS assay was then conducted to evaluate receptor agonist activity of each compound at nine concentrations from 100 fM to 10 μM (n = 3).[24,25] Initially, all compounds were tested for agonist activity with S1P5 and relative efficacy versus S1P (Table 1).[26] […] Previous work by the Novartis group described the importance of hydrogen bonding between the carboxamide and 2-substituent, to maintain an in-plane conformation of the amide that was critical for agonist activity against S1P receptors.[16] […] This was more pronounced for compounds with both a bulky alkoxy group and a 3-substituent, with 6-arylaminobenzamide 7h found to have the weakest activity. […] Based on the binding studies and the physicochemical results, 6-arylaminobenzamide 7g, named as TEFM78 was chosen as the lead compound.
(§2) The assay buffer was prepared from HEPES (20 mM), NaCl (100 mM), MgCl2 (10 mM) and fatty acid-free BSA (0.1%) at pH 7.4. ChemiScreen™ S1P1–3,5 lysophospholipid receptor membrane preparations were obtained from Eurofins. The membrane preparation was diluted to […] with assay buffer and mixed 1 : 1 (v/v) with a 0.4 mg mL^−1 solution of saponin in assay buffer. Nine concentrations of the compounds to be tested were prepared (10 μM, 1 μM, 100 nM, 10 nM, 1 nM, 100 pM, 10 pM, 1 pM, 100 fM). Merck™ Multiscreen® HTS 96 well filter plates were pre-wet with 70% aqueous EtOH (50 μL per well) for 30 seconds and then washed twice with assay buffer (200 μL per well). To each well was added membrane preparation (25 μL), GDP in assay buffer (25 μL, 2 μM), [^35S]GTPγS in assay buffer (25 μL, 1.2 nM) and test compound (25 μL). For total binding, S1P solution in assay buffer (25 μL, 10 μM) was added and for basal, assay buffer (25 μL) was added. The assay plate was incubated at 30 °C for 0.5 h before the addition of cold assay buffer (100 μL per well) to stop the reaction. The plate was filtered using a Millipore vacuum manifold, with a pressure between 600–800 mbar and then dried at 50 °C for 1–2 h. Betaplate Scint scintillation cocktail (30 μL per well) was added and the disintegrations per minute were determined using a Wallac 1450 Microbeta Trilux liquid scintillation and luminescence counter. EC50 values were derived from non-linear regression analysis using GraphPad Prism Version 6 (GraphPad Software Inc).

S1P2 = target: T3, S1P2 (Homo sapiens, UniProt O95136); experiment: [35S]GTPγS binding assay, agonist activity at S1P2; assay type: biochemical; conditions: n = 3, errors in parentheses derived from 95% confidence intervals
T3 construct: purchased Eurofins
Protocol: as §1, §2

S1P3 = target: T4, S1P3 (Homo sapiens, UniProt Q99500); experiment: [35S]GTPγS binding assay, agonist activity at S1P3; assay type: biochemical; conditions: n = 3, errors in parentheses derived from 95% confidence intervals
T4 construct: purchased Eurofins
Protocol: as §1, §2

[1] = target: human serum albumin (HSA) (Homo sapiens, UniProt P02768); experiment: Plasma protein binding by human serum albumin (HSA) coated column; assay type: in vitro ADME; conditions: read-out: %PPB (percentage of plasma protein binding)
Protocol: The physicochemical properties of both sets of compounds was initially performed to assess their potential as brain imaging agents. The calculated partition coefficient (log P), the permeability (Pm), the membrane partition coefficient (Km) and the percentage of plasma protein binding (%PPB) were determined for each compound using established methods (see ESI, ^† Table S1).[22,23] […] The permeability and membrane partition coefficient for the majority of compounds were well within the ideal limits for these parameters (Pm < 0.5; Km < 250), which are based on known CNS imaging agents.[23]
1. Physiochemical Propert ies of 6-arylaminobenz amides 7a–7h and 8a–8e.1
Compound log Pa Pmb Kmb %PPBc
aCalcul ated using Ch emDraw. bDeterm ined using i mmobil ised art ific ial membr ane (IAM) column .
cDetermin ed using human seru m albu min (HSA) coa ted colu mn.

Chain of human serum albumin (HSA) (P02768 25-609): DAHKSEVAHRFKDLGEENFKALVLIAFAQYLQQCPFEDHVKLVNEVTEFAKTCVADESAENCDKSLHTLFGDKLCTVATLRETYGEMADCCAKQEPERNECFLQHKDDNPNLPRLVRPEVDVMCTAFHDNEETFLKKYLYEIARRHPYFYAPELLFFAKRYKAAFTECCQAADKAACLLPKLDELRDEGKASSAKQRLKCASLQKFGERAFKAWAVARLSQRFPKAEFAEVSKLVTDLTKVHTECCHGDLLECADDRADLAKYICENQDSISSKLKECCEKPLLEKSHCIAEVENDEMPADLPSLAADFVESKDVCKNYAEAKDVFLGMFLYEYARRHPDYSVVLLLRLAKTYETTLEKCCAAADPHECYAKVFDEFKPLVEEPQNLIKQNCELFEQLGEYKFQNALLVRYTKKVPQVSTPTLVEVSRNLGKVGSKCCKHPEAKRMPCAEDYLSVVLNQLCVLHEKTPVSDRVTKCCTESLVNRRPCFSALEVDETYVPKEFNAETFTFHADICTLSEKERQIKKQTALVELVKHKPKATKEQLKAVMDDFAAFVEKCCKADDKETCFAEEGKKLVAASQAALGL
T2 sequence (P21453 whole entry): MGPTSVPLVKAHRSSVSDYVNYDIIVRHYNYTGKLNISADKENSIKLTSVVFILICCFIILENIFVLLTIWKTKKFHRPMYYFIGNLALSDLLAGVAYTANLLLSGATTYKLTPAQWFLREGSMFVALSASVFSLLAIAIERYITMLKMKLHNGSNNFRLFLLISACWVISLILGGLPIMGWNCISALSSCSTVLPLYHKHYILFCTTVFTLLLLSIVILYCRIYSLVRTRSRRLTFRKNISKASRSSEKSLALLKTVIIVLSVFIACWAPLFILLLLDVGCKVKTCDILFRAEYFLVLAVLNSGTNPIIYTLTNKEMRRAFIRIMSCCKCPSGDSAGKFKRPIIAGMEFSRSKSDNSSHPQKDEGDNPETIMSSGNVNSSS
T4 sequence (Q99500 whole entry): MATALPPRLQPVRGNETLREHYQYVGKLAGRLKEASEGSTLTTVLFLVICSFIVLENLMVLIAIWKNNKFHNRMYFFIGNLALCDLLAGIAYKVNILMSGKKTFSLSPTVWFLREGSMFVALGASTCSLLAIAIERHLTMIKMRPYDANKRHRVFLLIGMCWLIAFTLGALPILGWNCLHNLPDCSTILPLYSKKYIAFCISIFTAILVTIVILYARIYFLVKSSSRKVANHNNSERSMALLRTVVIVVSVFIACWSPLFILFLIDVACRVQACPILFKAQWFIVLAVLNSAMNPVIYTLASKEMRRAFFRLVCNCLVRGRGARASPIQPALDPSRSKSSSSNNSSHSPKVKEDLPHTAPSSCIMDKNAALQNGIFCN
T1 sequence (Q9H228 whole entry): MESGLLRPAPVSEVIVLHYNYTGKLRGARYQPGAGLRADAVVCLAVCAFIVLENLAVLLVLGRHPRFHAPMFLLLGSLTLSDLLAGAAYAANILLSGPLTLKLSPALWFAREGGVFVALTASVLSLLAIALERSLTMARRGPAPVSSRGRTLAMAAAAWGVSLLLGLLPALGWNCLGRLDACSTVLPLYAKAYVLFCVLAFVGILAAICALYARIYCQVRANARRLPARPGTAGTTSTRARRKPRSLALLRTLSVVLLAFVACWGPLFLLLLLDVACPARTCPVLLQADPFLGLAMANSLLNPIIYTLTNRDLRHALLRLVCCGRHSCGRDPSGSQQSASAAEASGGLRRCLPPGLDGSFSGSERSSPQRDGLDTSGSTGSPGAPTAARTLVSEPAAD
T3 sequence (O95136 whole entry): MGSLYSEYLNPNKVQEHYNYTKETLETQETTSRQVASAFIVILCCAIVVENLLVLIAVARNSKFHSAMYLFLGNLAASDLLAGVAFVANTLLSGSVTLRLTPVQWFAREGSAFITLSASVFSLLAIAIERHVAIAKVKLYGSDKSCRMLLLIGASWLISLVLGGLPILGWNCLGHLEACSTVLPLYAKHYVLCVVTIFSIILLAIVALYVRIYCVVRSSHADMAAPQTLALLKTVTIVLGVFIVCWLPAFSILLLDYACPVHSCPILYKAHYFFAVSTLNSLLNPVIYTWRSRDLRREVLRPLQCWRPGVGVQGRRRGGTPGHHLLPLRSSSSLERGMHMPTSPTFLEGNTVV

`Cc1cc(F)cc(C)c1Nc1ccc(C)c(OCC(C)C)c1C(N)=O` [Compound 7h, 6-[(4′-Fluoro-2′,6′-dimethylphenyl)amino]-2-isobutoxy-3-methylbenzamide] was tested, and the EC50 (S1P5) was 2240 nM and the “Efficacy (%)” value (S1P5) was 154%.
In the case of `Cc1cc(F)cc(C)c1Nc1cccc(OCCC(C)C)c1C(N)=O` [Compound 7e, 6-[(4′-Fluoro-2′,6′-dimethylphenyl)amino]-2-(3′′-methyl-n-butoxy)benzamide], the EC50 (S1P5) is reported as 49 nM and the “Efficacy (%)” value (S1P5) is reported as 102%.
With `C=CCOc1cccc(Nc2c(C)cc(F)cc2C)c1C(N)=O` [Compound 7f, 2-(Allyloxy)-6-[(4′-fluoro-2′,6′-dimethylphenyl)amino]benzamide] the EC50 (S1P5) was 6.66 nM, the “Efficacy (%)” value (S1P5) was 164% and the EC50 (S1P1) was 25.6 nM. It also gave an EC50 (S1P2) of over 10000 nM and an EC50 (S1P3) of 27.6 nM.
`COc1c(-c2cccnc2F)ccc(Nc2c(C)cc(C)cc2C)c1C(N)=O` [Compound 8e, 3-(2′′-Fluoropyridin-3′′-yl)-6-(mesitylamino)-2-methoxybenzamide] was tested, and the EC50 (S1P5) was 23.4 nM, the “Efficacy (%)” value (S1P5) was 175% and the EC50 (S1P1) was 0.336 nM. For the same compound, the EC50 (S1P2) was over 10000 nM, the EC50 (S1P3) was 172 nM and the fraction unbound [1] was 0.01.
For `Cc1cc(F)cc(C)c1Nc1cccc(OC(C)C)c1C(N)=O` [Compound 7a, 6-[(4′-Fluoro-2′,6′-dimethylphenyl)amino]-2-isopropoxybenzamide], the EC50 (S1P5) was 419 nM, the “Efficacy (%)” value (S1P5) was 105% and the fraction unbound [1] was 0.01.
In the case of `COc1c(C)ccc(Nc2c(C)cc(F)cc2C)c1C(N)=O` [Compound 7g, 6-[(4′-Fluoro-2′,6′-dimethylphenyl)amino]-2-methoxy-3-methylbenzamide], the EC50 (S1P5) is reported as 22.3 nM, the “Efficacy (%)” value (S1P5) is reported as 183% and the EC50 (S1P1) is reported as 104 nM. The EC50 (S1P2) was over 10000 nM, the EC50 (S1P3) was 2030 nM and the fraction unbound [1] was 0.01.
For `CCCCOc1cccc(Nc2c(C)cc(F)cc2C)c1C(N)=O` [Compound 7d, 2-n-Butoxy-6-[(4′-fluoro-2′,6′-dimethylphenyl)amino]benzamide], the EC50 (S1P5) was 234 nM and the “Efficacy (%)” value (S1P5) was 140%.
With `CCCCCCCCCCCCC/C=C/[C@@H](O)[C@@H](N)COP(=O)(O)O` [S1P (1), sphingosine-1-phosphate] the “Efficacy (%)” value (S1P5) was 100% and the EC50 (S1P3) was 42.6 nM.
For `COc1c(-c2ccc(F)cc2)ccc(Nc2c(C)cc(C)cc2C)c1C(N)=O` [Compound 8a, 3-(4′′-Fluorophenyl)-6-(mesitylamino)-2-methoxybenzamide], the EC50 (S1P5) was 72.3 nM and the “Efficacy (%)” value (S1P5) was 129%.
In the case of `COc1ccc(-c2ccc(Nc3c(C)cc(C)cc3C)c(C(N)=O)c2OC)c(F)c1` [Compound 8c, 3-(2′′-Fluoro-4′′-methoxyphenyl)-6-(mesitylamino)-2-methoxybenzamide], the EC50 (S1P5) is reported as 29.8 nM, the “Efficacy (%)” value (S1P5) is reported as 120% and the EC50 (S1P1) is reported as 76 nM. It also gave an EC50 (S1P2) of over 10000 nM and an EC50 (S1P3) of over 10000 nM.
With `COc1cccc(Nc2c(C)cc(F)cc2C)c1C(N)=O` [Compound 7b, 6-[(4′-Fluoro-2′,6′-dimethylphenyl)amino]-2-methoxybenzamide] the EC50 (S1P5) was 39.8 nM, the “Efficacy (%)” value (S1P5) was 108% and the EC50 (S1P1) was over 10000 nM. It also gave an EC50 (S1P2) of over 10000 nM, an EC50 (S1P3) of over 10000 nM and a fraction unbound [1] of 0.01.
`COc1ccc(F)c(-c2ccc(Nc3c(C)cc(C)cc3C)c(C(N)=O)c2OC)c1` [Compound 8d, 3-(2′′-Fluoro-5′′-methoxyphenyl)-6-(mesitylamino)-2-methoxybenzamide] was tested, and the EC50 (S1P5) was 612 nM and the “Efficacy (%)” value (S1P5) was 142%.
With `Cc1cc(F)cc(C)c1Nc1cccc(OCC(C)C)c1C(N)=O` [Compound 7c, 6-[(4′-Fluoro-2′,6′-dimethylphenyl)amino]-2-isobutoxybenzamide] the EC50 (S1P5) was 180 nM and the “Efficacy (%)” value (S1P5) was 137%.
For `COc1c(-c2ccccc2F)ccc(Nc2c(C)cc(C)cc2C)c1C(N)=O` [Compound 8b, 3-(2′′-Fluorophenyl)-6-(mesitylamino)-2-methoxybenzamide], the EC50 (S1P5) was 954 nM and the “Efficacy (%)” value (S1P5) was 136%.

From PMC11729640, “Synthesis and evaluation of 6-arylaminobenzamides as positron emission tomography imaging ligands for the sphingosine-1-phosphate-5 receptor” (RSC Medicinal Chemistry, 2025)
